Positions count from the first letter of the chain named.
Assays:
[1] = set-up: method as in PMID 16936474; settings: cited from earlier work
[2] = target: T1, HCN1 mutant W281A (Homo sapiens, UniProt O60741, W281A); assay: Whole-cell patch-clamp, Ih inhibition, HCN1 mutant; assay type: cell-based; settings: electrophysiological recordings, read-out: IC50 (Fig. 2F)
T1 construct: Full-length WT or mutant human HCN1 were cloned into the pcDNA3.1 vector; expressed in transfected cells; host or cells: HeLa cells, pcDNA3.1 vector, transient lipofection
T1 sequence (O60741 1-890 W281A): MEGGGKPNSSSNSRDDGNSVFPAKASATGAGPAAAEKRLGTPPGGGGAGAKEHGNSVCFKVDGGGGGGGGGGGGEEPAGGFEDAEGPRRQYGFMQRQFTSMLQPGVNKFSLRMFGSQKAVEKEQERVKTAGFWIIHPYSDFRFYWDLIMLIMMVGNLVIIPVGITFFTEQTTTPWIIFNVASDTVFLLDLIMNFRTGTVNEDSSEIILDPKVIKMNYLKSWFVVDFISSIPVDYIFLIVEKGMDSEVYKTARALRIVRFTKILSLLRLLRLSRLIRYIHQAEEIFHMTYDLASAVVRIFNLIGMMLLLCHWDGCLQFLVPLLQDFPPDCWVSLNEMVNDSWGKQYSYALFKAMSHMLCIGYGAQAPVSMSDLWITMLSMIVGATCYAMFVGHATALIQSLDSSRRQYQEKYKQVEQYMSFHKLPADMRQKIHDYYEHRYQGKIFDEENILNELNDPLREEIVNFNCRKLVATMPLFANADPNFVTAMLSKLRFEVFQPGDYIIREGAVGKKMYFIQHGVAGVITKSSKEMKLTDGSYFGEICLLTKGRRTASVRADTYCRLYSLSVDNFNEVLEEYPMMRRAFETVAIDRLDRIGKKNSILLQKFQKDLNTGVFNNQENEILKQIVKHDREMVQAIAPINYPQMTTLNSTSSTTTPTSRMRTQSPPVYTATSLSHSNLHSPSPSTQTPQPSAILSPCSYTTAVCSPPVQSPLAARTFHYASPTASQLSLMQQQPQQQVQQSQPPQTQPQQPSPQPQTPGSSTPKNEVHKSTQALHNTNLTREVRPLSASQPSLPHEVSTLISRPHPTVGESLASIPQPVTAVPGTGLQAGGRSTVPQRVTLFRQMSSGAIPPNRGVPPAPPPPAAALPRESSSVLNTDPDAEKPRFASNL
Method: To elucidate the contribution of these residues to the inhibitory effect of ivabradine, we introduced mutations in ivabradine-interacting residues, converting them into alanines (Fig. 2F).
(§1) Full-length WT or mutant human HCN1 were cloned into the pcDNA3.1 vector for electrophysiological experiments. HeLa cells (from Thermo Fisher Scientific) cultured in Dulbecco's modified Eagle's medium (from Solarbio Life Science) + 10% fetal bovine serum (from ExCell Bio) at 37 °C were transiently transfected using lipofection, and whole-cell patch-clamp recordings were obtained using the Axon 200B amplifier (Molecular Devices) and clampex software (https://www.moleculardevices.com/products/axon-patch-clamp-system/acquisition-and-analysis-software/pclamp-software-suite), 36 to 48 h posttransfection. The extracellular solution contained 110 mM NaCl, 0.5 mM MgCl2, 1.8 mM CaCl2, 5 mM Hepes, 30 mM KCl, and pH was adjusted to 7.4 with NaOH, while the pipette solution contained 130 mM KCl, 10 mM NaCl, 0.5 mM MgCl2, 1 mM EGTA, 5 mM Hepes, and pH was adjusted to 7.4 with KOH. The recordings were performed at room temperature, voltage-clamp mode, and filtered at 1 kHz. The sampling frequency was 10 kHz, and the series resistance was limited to 5 MΩ. To elicit channel currents, step pulses of 3 s duration ranging from −180 mV to −30 mV were applied, followed by a step to −180 mV lasting 1.25 s. The tail currents evoked by the second step were used to determine the voltage-dependent activation curves and calculate the midpoint of activation potential (V1/2). The half maximal inhibitory concentration (IC50) of drugs was determined by recording currents at a pulse of −140 mV and analyzing current amplitudes at varying drug concentrations. The IC50 value was calculated using the Hill equation.

[3] = target: T2, WT hHCN1 (Homo sapiens, UniProt O60741); assay: Whole-cell patch-clamp, Ih inhibition in transfected HeLa cells; assay type: cell-based
T2 construct: Full-length WT or mutant human HCN1 were cloned into the pcDNA3.1 vector; expressed in transfected cells; host or cells: HeLa cells, pcDNA3.1 vector, transient lipofection
T2 sequence (O60741 1-890): T1 sequence (O60741 1-890 W281A) with A281W
Method: The electrophysiological characteristics of WT hHCN1 were recorded using whole-cell patch-clamp. […] Activation of the HCN1 channel occurred in response to membrane hyperpolarization.
as §1

[4] = tested on: absence seizures; set-up: method as in PMID 34018186; settings: coadministration with P-glycoprotein inhibitor elacridar; cited from earlier work

IC50 [2]: 17.4 µM
effect on Ih current ([3]; 20 μM): significantly reduced
IC50 ([3]; membrane potential -140 mV, read-out: half-maximal inhibitory concentration (IC50) of Ih inhibition): 2.94 ± 0.61 µM
SMILES: COc1cc2c(cc1OC)CC(=O)N(CCCN(C)C[C@H]1Cc3cc(OC)c(OC)cc31)CC2 [ivabradine]
ability to penetrate the blood-brain barrier [1]: poor
effect on absence seizures [4]: significantly and persistently reducing absence seizures

From article PMC11530593, “Structural mechanism of human HCN1 hyperpolarization-activated channel inhibition by ivabradine” (The Journal of Biological Chemistry, 2024)
